Measurements as given in ChEMBL document CHEMBL3217739 (Medchemcomm, 2011).

How the values were obtained:
Plasmodium falciparum [1] = test: Antimalarial activity against schizont stage of chloroquine-susceptible Plasmodium falciparum 3D7 infected in erythrocytes assessed as inhibition of [3H]hypoxanthine incorporation after 48 hrs by scintillation counting analysis; format: functional, organism-based
Plasmodium falciparum [2] = test: Antimalarial activity against schizont stage of chloroquine-susceptible Plasmodium falciparum 3D7 infected in erythrocytes assessed as inhibition of [3H]hypoxanthine incorporation after 96 hrs by scintillation counting analysis; format: functional, organism-based
Plasmodium falciparum [3] = test: Antimalarial activity against schizont stage of chloroquine-resistant Plasmodium falciparum W2 infected in erythrocytes assessed as inhibition of [3H]hypoxanthine incorporation after 48 hrs by scintillation counting analysis; format: functional, organism-based
Plasmodium falciparum [4] = test: Antimalarial activity against schizont stage of chloroquine-resistant Plasmodium falciparum W2 infected in erythrocytes assessed as inhibition of [3H]hypoxanthine incorporation after 96 hrs by scintillation counting analysis; format: functional, organism-based
Plasmodium falciparum [5] = test: Antimalarial activity against schizont stage of atovaquone-resistant Plasmodium falciparum Tm90C2b infected in erythrocytes assessed as inhibition of [3H]hypoxanthine incorporation after 48 hrs by scintillation counting analysis; format: functional, organism-based
Plasmodium falciparum [6] = test: Antimalarial activity against schizont stage of atovaquone-resistant Plasmodium falciparum Tm90C2b infected in erythrocytes assessed as inhibition of [3H]hypoxanthine incorporation after 96 hrs by scintillation counting analysis; format: functional, organism-based
Toxoplasma gondii [7] = test: Antitoxoplasma activity against Toxoplasma gondii RH tachyzoites isolated from human brain assessed as parasite growth inhibition after 24 hrs by hematoxylin-eosin staining based light microscopy; format: functional, organism-based
Toxoplasma gondii [8] = test: Antitoxoplasma activity against Toxoplasma gondii RH tachyzoites isolated from human brain assessed as parasite growth inhibition after 48 hrs by hematoxylin-eosin staining based light microscopy; format: functional, organism-based
Plasmodium falciparum [9] = test: Ratio of ciprofloxacin IC50 to compound IC50 for chloroquine-resistant Plasmodium falciparum W2 infected in erythrocytes after 48 hrs; format: functional
Plasmodium falciparum [10] = test: Ratio of ciprofloxacin IC50 to compound IC50 for atovaquone-resistant Plasmodium falciparum Tm90C2b infected in erythrocytes after 48 hrs; format: functional
Plasmodium falciparum [11] = test: Ratio of ciprofloxacin IC50 to compound IC50 for chloroquine-susceptible Plasmodium falciparum 3D7 infected in erythrocytes after 48 hrs; format: functional
Plasmodium falciparum [12] = test: Ratio of ciprofloxacin IC50 to compound IC50 for chloroquine-resistant Plasmodium falciparum W2 infected in erythrocytes after 96 hrs; format: functional
Plasmodium falciparum [13] = test: Ratio of ciprofloxacin IC50 to compound IC50 for atovaquone-resistant Plasmodium falciparum Tm90C2b infected in erythrocytes after 96 hrs; format: functional
Plasmodium falciparum [14] = test: Ratio of ciprofloxacin IC50 to compound IC50 for chloroquine-susceptible Plasmodium falciparum 3D7 infected in erythrocytes after 96 hrs; format: functional
[15] = Chemical stability of the compound in aqueous phosphate buffer of pH 7.4 assessed as half life at 100 uM by HPLC analysis; format: physicochemical
[16] = Stability of the compound in RPMI medium assessed as half life at 100 uM by HPLC analysis in presence of 10% human serum; format: physicochemical; conditions: RPMI medium with 10% human serum
[17] = Cytotoxicity against rhesus monkey LLC-MK2 cells assessed as cell viability after 48 hrs by MTS assay; format: cell-based, Macaca mulatta; conditions: read-out: LD50
[18] = Cytotoxicity against concanavalin A stimulated BALB/c mouse splenocytes after 72 hrs by alamar blue dye based plate reader analysis; format: cell-based, Splenocyte; conditions: read-out: LD50
[19] = Therapeutic index, ratio of LD50 for rhesus monkey LLC-MK2 cells to IC50 for Toxoplasma gondii RH tachyzoites; format: cell-based; conditions: read-out: Ratio LD50/IC50
[20] = Therapeutic index, ratio of LD50 for concanavalin A stimulated BALB/c mouse splenocytes to IC50 for chloroquine-susceptible Plasmodium falciparum 3D7 infected in erythrocytes; format: cell-based; conditions: read-out: Ratio LD50/IC50

| SMILES | IC50 (Plasmodium falciparum [1]) [nM] | IC50 (Plasmodium falciparum [2]) [nM] | IC50 (Plasmodium falciparum [3]) [nM] | IC50 (Plasmodium falciparum [4]) [nM] | IC50 (Plasmodium falciparum [5]; read-out: IC50) [nM] | IC50 (Plasmodium falciparum [6]) [nM] | IC50 (Toxoplasma gondii [7]) [nM] | IC50 (Toxoplasma gondii [8]) [nM] | half-life at 100 µM [15] [h] | half-life at 100 µM [16] [h] | CC50 at 48 h [17] [nM] | CC50 at 72 h [18] [nM] | also measured |
| --- | --- | --- | --- | --- | --- | --- | --- | --- | --- | --- | --- | --- | --- |
| O=C1C(O)=C([C@H]2CC[C@H](c3ccc(Cl)cc3)CC2)C(=O)c2ccccc21 [ATOVAQUONE] | 2.3 | 1.9 | 3.9 | 2 | > 10000 | 388 |  |  |  |  |  |  |  |
| CCc1nc(N)nc(N)c1-c1ccc(Cl)cc1 [PYRIMETHAMINE] | 13.3 | 2.1 | 10.4 | 2.3 | 14.6 | 1.4 | 240 | 120 |  |  |  |  |  |
| CCOC(=O)c1cn(C2CC2)c2cc(N3CCN(CCC45CC6CC(CC(C6)C4)C5)CC3)c(F)cc2c1=O | 1000 | 410 | 2060 | 710 | 2460 | 2230 | 920 | 460 | > 76 | > 76 | 27800 | > 100000 | Ratio IC50 (Plasmodium falciparum [9]): 60; Ratio IC50 (Plasmodium falciparum [10]): 29; Ratio IC50 (Plasmodium falciparum [11]): 47; Ratio IC50 (Plasmodium falciparum [12]): 7; Ratio IC50 (Plasmodium falciparum [13]): 7; Ratio IC50 (Plasmodium falciparum [14]): 31; selectivity ratio [19]: > 60; selectivity ratio [20]: > 100 |
| O=C(O)c1cn(C2CC2)c2cc(N3CCNCC3)c(F)cc2c1=O [CIPROFLOXACIN] | 47000 | 12800 | 122000 | 16800 |  | 15300 |  |  |  |  |  |  | IC50 (Plasmodium falciparum [5]): 71800 nM |
| CCOC(=O)c1cn(C2CC2)c2cc(N3CCNCC3)c(F)cc2c1=O [CIPROFLOXACIN ETHYL ESTER] | 2330 | 890 | 3670 | 840 | 3560 | 2270 | 960 | 420 | > 76 | > 76 | > 30000 | > 40000 |  |
| CCOC(=O)c1cn(C2CC2)c2cc(N3CCN(Cc4ccccc4)CC3)c(F)cc2c1=O | 1080 | 320 | 1610 | 490 | 2560 | 2350 | 1700 | 1240 | > 76 | > 76 | > 30000 | 57000 |  |
| C=C[C@H]1CN2CC[C@H]1C[C@H]2[C@H](O)c1ccnc2ccc(OC)cc12 [QUININE] |  | 112 | 917 |  | 1070 |  |  |  |  |  |  |  |  |
